The numbers were not newly measured in patent publication US20190328884A1, “COMPOSITIONS AND METHODS OF THEIR USE” (Chemic Laboratories, Inc., priority 2018, published 2019), which cites them from elsewhere.

For this series the following is noted: in vivo.

Consider `NC(=O)N1c2ccccc2C=Cc2ccccc21` [carbamezepine], for which the “decrease in white blood cell count” value is 25%, the “increase in the risk of blood dyscrasias” value is on record as “five- to eight” and the “patients shown to have a 25% decrease in their white blood cell count” value was 7%.
